Experimental findings from article PMC8151276, “An Integrated Approach toward NanoBRET Tracers for Analysis of GPCR Ligand Engagement” (Molecules, 2021) are described below.

Each structure is given as a SMILES string.

The target of one experiment is T1, FZD10 (Homo sapiens, UniProt Q9ULW2).
T1 construct: purchased Promega (in-house HiBiT-GPCR construct library, NanoBRET)
T1 sequence (Q9ULW2 21-581): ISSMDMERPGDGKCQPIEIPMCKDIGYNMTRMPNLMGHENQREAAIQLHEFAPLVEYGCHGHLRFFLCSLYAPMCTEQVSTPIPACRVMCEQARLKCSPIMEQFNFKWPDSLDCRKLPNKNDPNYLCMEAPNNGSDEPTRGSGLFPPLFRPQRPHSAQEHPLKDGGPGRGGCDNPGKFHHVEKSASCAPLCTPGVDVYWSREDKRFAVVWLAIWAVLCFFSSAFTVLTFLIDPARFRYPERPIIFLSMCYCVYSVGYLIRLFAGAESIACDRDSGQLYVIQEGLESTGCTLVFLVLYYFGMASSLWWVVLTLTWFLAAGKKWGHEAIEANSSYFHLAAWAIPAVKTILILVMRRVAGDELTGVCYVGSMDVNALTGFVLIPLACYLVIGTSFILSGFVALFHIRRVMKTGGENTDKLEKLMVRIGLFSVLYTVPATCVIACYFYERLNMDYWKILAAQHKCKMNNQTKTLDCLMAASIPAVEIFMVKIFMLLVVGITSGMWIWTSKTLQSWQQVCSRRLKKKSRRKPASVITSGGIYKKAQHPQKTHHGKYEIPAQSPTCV
Put plainly: NanoBRET screen HiBiT-FZD10 in HEK293. It is filed as binding. As for the experimental part: (§1) Each tracer candidate was screened across the entire library of HiBiT-GPCR constructs using NanoBRET as the detection modality. As depicted in Figure 4A, the specificity of interactions was evaluated through decrease in BRET due to competitive displacement of a bound tracer by excess parental compound. Each tracer was analyzed for binding to each HiBiT-GPCR fusion in the absence and in the presence of competing parental compound. Briefly, HEK293 cells were transfected with HiBiT-GPCR constructs diluted into promoterless DNA to reduce expression and maximize translocation to the cell surface. Each tracer candidate was then screened at concentrations of 1 μM and 0.1 μM across cells expressing these fusions. Cells were treated for 1.5 h with tracer either alone or in the presence of 20 μM competing parental compound (i.e., control). BRET was measured upon addition of purified LgBiT and subsequent complementation with HiBiT genetically fused to a GPCR. The specificity of interactions was assessed through a decrease in BRET signal due to competitive displacement of the bound tracer. To further gauge the robustness of these interactions, the fold response over the control (i.e., BRETtracer/BRETcontrol) was calculated. We chose a 1.5-fold response, which translates to ≥7-fold signal over noise as the minimal threshold required to score an interaction as positive.
(§2) HiBiT-GPCR DNA constructs were diluted in 10 mM Tris pH 8 to a final concentration of 0.01 μg/μL, arrayed in 96-well plates and stored at −20 °C. For transfection, HEK293 cells were suspended in Opti-MEM (without phenol red) supplemented with 2% fetal bovine serum (Seradigm) and 100 units/mL penicillin–streptomycin (Gibco) at a final concentration of 220,000 cells/mL and dispensed into white 96-well plates at 90 μL/well. Subsequent transfections and screens were carried using an Agilent Bravo Automated Liquid Handling Platform. First, the 96-well HiBiT DNA arrays were diluted 25-fold in Opti-MEM (without serum or phenol red) to a final concentration of 0.0004 μg/μL and 20 μL of the diluted DNAs were transferred into new 96-well plates. Next, promoterless carrier DNA (1 μg/μL) was diluted 25-fold (0.04 μg/μL) and then dispensed into the diluted arrays at 20 μL/well. Following brief mixing, Viafect transfection reagent (Promega) diluted 16-fold into Opti-MEM was dispensed into the plates at 40 μL/well. After mixing by pipetting, plates were incubated for 10 min on the pipetting station deck. The DNA-transfection reagent complexes were then added to plates containing cells. To facilitate the screen, 10 μL of DNA-transfection reagent complexes were added in duplicates to the top 4 and bottom 4 rows, resulting in two identical 48-well arrays per plate. Plates with transfected cells were incubated for 18–20 h at 37 °C/5% CO2. A screen of each tracer across the entire library using two different concentrations requires duplicate plates of transfected cells. Depending on the number of tracers being screened, transfections can be scaled up using the same ratios. The next day, for each tracer, four 20× screening solutions in tracer dilution buffer (Promega) were prepared: two duplicates at final concentration of 20 μM and two duplicates at a final concentration of 2 μM. […] The four resulting solutions were diluted 4-fold in Opti-MEM without serum or phenol red to generate 5× solutions (5 µM and 0.5 µM tracer +/− 100 μM competing compound). To screen the library, a BioTek MultiFlo FX liquid dispenser was used to dispense 22.5 µL of tracer solution to the top 4 rows and 22.5 µL tracer + competing compound solution to the 4 bottom rows. Plates were briefly mixed on an orbital shaker and incubated for 1.5 h at room temperature. […] Plates were briefly mixed on an orbital shaker and incubated for 15 min to allow complementation.
On the technique in general: In BRET a luciferase serves as donor, and the signal depends on an acceptor being close.

A further experiment concerns the target T2, NPFFR1 (Homo sapiens, UniProt Q9GZQ6).
T2 construct: purchased Promega (in-house HiBiT-GPCR construct library, NanoBRET)
Description: NanoBRET screen HiBiT-NPFFR1 in HEK293. It is filed as binding. As to the method:
as §1, §2

T2 sequence (Q9GZQ6 whole entry): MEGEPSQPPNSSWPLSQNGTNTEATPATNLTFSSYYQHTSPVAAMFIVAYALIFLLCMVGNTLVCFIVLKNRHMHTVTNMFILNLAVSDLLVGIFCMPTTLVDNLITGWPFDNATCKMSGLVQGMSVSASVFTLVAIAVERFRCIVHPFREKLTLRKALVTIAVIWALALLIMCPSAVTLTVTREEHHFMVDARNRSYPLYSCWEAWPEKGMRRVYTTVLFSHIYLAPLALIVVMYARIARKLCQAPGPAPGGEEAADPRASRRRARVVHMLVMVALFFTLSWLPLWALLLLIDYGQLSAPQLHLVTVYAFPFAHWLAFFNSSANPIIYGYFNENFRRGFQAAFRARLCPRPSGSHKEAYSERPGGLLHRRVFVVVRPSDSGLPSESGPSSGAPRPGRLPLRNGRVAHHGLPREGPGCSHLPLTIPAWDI

Consider `COc1ccc2c(n1)c(CCNC(C)=O)cn2CCNC(=O)CCc1ccc2n1[B-](F)(F)[N+]1=C(c3ccc[nH]3)C=CC1=C2` [Azamelatonin-1-NB590], for which the “NanoBRET Fold Response” value is 0.93 on FZD10 (0.1μM tracer), 0.93 at FZD10 (1μM tracer), 0.99 at NPFFR1 (0.1μM tracer) and 0.91 on NPFFR1 (1μM tracer).
In the case of `CC(C)N(CC[C@H](c1ccccc1)c1cc(CCNC(=O)c2ccc(CNC(=O)CCc3ccc4n3[B-](F)(F)[N+]3=C(c5ccc[nH]5)C=CC3=C4)cc2)ccc1O)C(C)C` [Tolterodine-BZ-NB590], the “NanoBRET Fold Response” value is reported as 0.97 on FZD10 (FZD10, tracer 0.1μM); 1.06 at FZD10 (FZD10, tracer 1μM); 0.96 at NPFFR1 (NPFFR1, tracer 0.1μM); 1.02 at NPFFR1 (NPFFR1, tracer 1μM).
For `O=C(CCc1ccc2n1[B-](F)(F)[N+]1=C(c3ccc[nH]3)C=CC1=C2)NCCOCCOCCNC(=O)OCCOCCN1CCN(C2=Nc3ccccc3Sc3ccccc32)CC1` [Quetiapine-a-2-NB590] the same measures were 0.92, 0.80, 0.99 and 1.00.
For the compound `Cc1cc2c(s1)Nc1ccccc1N=C2N1CCN(CCCNC(=O)CCOCCOCCOCCOCCNC(=O)CCc2ccc3n2[B-](F)(F)[N+]2=C(c4ccc[nH]4)C=CC2=C3)CC1` [Olanzapine-a-2-NB590], the “NanoBRET Fold Response” value is on record as 0.98 on FZD10 (FZD10, tracer 0.1μM); 0.99 on FZD10 (FZD10, tracer 1μM); 0.96 at NPFFR1 (NPFFR1, tracer 0.1μM).
Take `O=C(CCc1ccc2n1[B-](F)(F)[N+]1=C(c3ccc[nH]3)C=CC1=C2)NCc1ccc(C(=O)NCCOCCOCCNCC(O)COc2cccc3ccccc23)cc1` (stereo not drawn) [Propranolol-3-NB590]: the “NanoBRET Fold Response” value amounted to 1.04 at FZD10 (FZD10, 0.1μM); 1.02 on FZD10 (FZD10, 1μM); 1.01 at NPFFR1 (NPFFR1, 0.1μM); 0.99 on NPFFR1 (NPFFR1, 1μM).
In the case of `CN1CCN(C2=Nc3cc(Cl)ccc3N(CC(=O)NCCOCCOCCOCCOCCNC(=O)CCc3ccc4n3[B-](F)(F)[N+]3=C(c5ccc[nH]5)C=CC3=C4)c3ccccc32)CC1` [Clozapine-c-2-NB590], the “NanoBRET Fold Response” value on FZD10 (FZD10, 0.1μM tracer) is listed as 1.00; at NPFFR1 (NPFFR1, 0.1μM tracer), 1.02; on NPFFR1 (NPFFR1, 1μM tracer) it was 1.00.
On to `O=C(CCc1ccc2n1[B-](F)(F)[N+]1=C(c3ccc[nH]3)C=CC1=C2)NCc1ccc(C(=O)NCCOCCC(=O)N[C@@H]2CC[C@@]3(O)[C@H]4Cc5ccc(O)c6c5[C@@]3(CCN4CC3CC3)[C@H]2O6)cc1` [Naltrexone-3-NB590], for which the “NanoBRET Fold Response” value at FZD10 (FZD10, tracer 0.1μM) is given as 0.66; on FZD10 (FZD10, tracer 1μM) it was 1.06; at NPFFR1 (NPFFR1, tracer 0.1μM), 0.94; at NPFFR1 (NPFFR1, tracer 1μM) it was 1.15.
Regarding `CC(C)N(CC[C@H](c1ccccc1)c1cc(CCNC(=O)CCOCCOCCOCCOCCNC(=O)CCc2ccc3n2[B-](F)(F)[N+]2=C(c4ccc[nH]4)C=CC2=C3)ccc1O)C(C)C` [Tolterodine-2-NB590], the “NanoBRET Fold Response” value on FZD10 (FZD10, tracer 1μM) came out at 1.05; on NPFFR1 (NPFFR1, tracer 0.1μM) it was 1.19.
Regarding `Cc1nc2n(c(=O)c1CCN1CCC(c3noc4cc(F)ccc34)CC1)CCCC2OC(=O)NCCOCCOCCOCCOCCNC(=O)CCc1ccc2n1[B-](F)(F)[N+]1=C(c3ccc[nH]3)C=CC1=C2` (stereo not drawn) [Risperidone-2-NB590], the “NanoBRET Fold Response” value came to 1.00 at FZD10 (FZD10, tracer 0.1μM); 1.04 on FZD10 (FZD10, tracer 1μM); 0.97 on NPFFR1 (NPFFR1, tracer 0.1μM); 0.95 at NPFFR1 (NPFFR1, tracer 1μM).
For the compound `O=C(CCOCCOCCOCCOCCNC(=O)CCc1ccc2n1[B-](F)(F)[N+]1=C(c3ccc[nH]3)C=CC1=C2)NCCCN1CCN(C2=Nc3cc(Cl)ccc3Nc3ccccc32)CC1` [Clozapine-a-2-NB590], the “NanoBRET Fold Response” value on FZD10 (FZD10, 0.1μM tracer) is reported as 1.01; on FZD10 (FZD10, 1μM tracer), 0.99; at NPFFR1 (NPFFR1, 1μM tracer) it was 0.98.
`COc1ccc2[nH]c(-c3ccc(CNC(=O)CCOCCOCCOCCOCCNC(=O)CCc4ccc5n4[B-](F)(F)[N+]4=C(c6ccc[nH]6)C=CC4=C5)cc3)c(CCNC(C)=O)c2n1` [AzomelatoninICO9-2-NB590]: the entries for the “NanoBRET Fold Response” value on FZD10 (0.1μM tracer), at FZD10 (1μM tracer) and on NPFFR1 (1μM tracer) were 0.96, 0.89 and 1.01, respectively.
Take `CN1CCN(C2=Nc3cc(Cl)ccc3Nc3ccc(CNC(=O)CCOCCOCCOCCOCCNC(=O)CCc4ccc5n4[B-](F)(F)[N+]4=C(c6ccc[nH]6)C=CC4=C5)cc32)CC1` [Clozapine-b-2-NB590]: the “NanoBRET Fold Response” value on FZD10 (FZD10, 0.1μM tracer) came to 1.01; on FZD10 (FZD10, 1μM tracer), 1.08; at NPFFR1 (NPFFR1, 0.1μM tracer), 1.00; on NPFFR1 (NPFFR1, 1μM tracer), 1.02.
Take `COc1ccccc1N1CCN(CCCCN2C(=O)c3ccc(CNC(=O)CCOCCNC(=O)c4ccc(CNC(=O)CCc5ccc6n5[B-](F)(F)[N+]5=C(c7ccc[nH]7)C=CC5=C6)cc4)cc3C2=O)CC1` [NAN-190-3-NB590]: the “NanoBRET Fold Response” value at FZD10 (FZD10, tracer 0.1μM) was 0.92; on FZD10 (FZD10, tracer 1μM), 0.79; at NPFFR1 (NPFFR1, tracer 0.1μM), 1.06; at NPFFR1 (NPFFR1, tracer 1μM), 0.96.
For `N#CN=C(NCCCOc1cccc(CN2CCCCC2)c1)NCCNC(=O)CCOCCOCCOCCOCCNC(=O)CCc1ccc2n1[B-](F)(F)[N+]1=C(c3ccc[nH]3)C=CC1=C2` [Aminopotentidine-2-NB590] the same measures were 0.99, 0.99, 0.96 and 1.02.
`CN(C)CCC=C1c2ccccc2CCc2ccc(C(=O)NCCNC(=O)CCOCCOCCOCCOCCNC(=O)CCc3ccc4n3[B-](F)(F)[N+]3=C(c5ccc[nH]5)C=CC3=C4)cc21` [Amitriptyline-b-2-NB590]: the “NanoBRET Fold Response” value on FZD10 (tracer at 0.1μM, listed as amitriptyline-b-2-NB590) was 0.18; at FZD10 (tracer at 1μM), 0.99; on NPFFR1 (tracer at 0.1μM), 0.98.
Regarding `COc1ccccc1N1CCN(CCCCN2C(=O)c3ccc(CNC(=O)CCOCCOCCOCCOCCNC(=O)CCc4ccc5n4[B-](F)(F)[N+]4=C(c6ccc[nH]6)C=CC4=C5)cc3C2=O)CC1` [NAN-190-2-NB590], the “NanoBRET Fold Response” value amounted to 0.99 on FZD10 (FZD10, tracer 0.1μM); 1.04 on FZD10 (FZD10, tracer 1μM); 0.95 at NPFFR1 (NPFFR1, tracer 0.1μM); 1.02 at NPFFR1 (NPFFR1, tracer 1μM).
On to `CN(CCC=C1c2ccccc2CCc2ccccc21)C(=O)CCOCCOCCOCCOCCNC(=O)CCc1ccc2n1[B-](F)(F)[N+]1=C(c3ccc[nH]3)C=CC1=C2` [Amitriptyline-e-2-NB590], for which, on FZD10 (tracer at 1μM), the “NanoBRET Fold Response” value amounted to 1.01.
Consider `CN(C)CCC=C1c2ccccc2CCc2ccc(C(=O)NCCNC(=O)CCOCCOCCOCCOCCNC(=O)CCc3ccc4n3[B-](F)(F)[N+]3=C(c5ccc[nH]5)C=CC3=C4)cc21` [Amitriptyline-a-2-NB590], for which the “NanoBRET Fold Response” value on FZD10 (tracer at 0.1μM) came to 0.97; at FZD10 (tracer at 1μM) it was 1.01.
